Patent US9616129B2, “Compositions and methods for potentiating immune response, enhancing immunotherapy, and increasing vaccine potency” (Nitor Therapeutics, priority 2013, dated 2017)

Tests used:
interferon-a (IFN-a) = settings: healthy volunteers; oral; cited from earlier work
HCV = settings: chronically HCV infected patients; cited from earlier work
B16 tumors = assay: Syngeneic mouse melanoma model; format: in vivo, C57BL/6 mice; settings: cyclophosphamide 100 mg/kg IP single dose
Description: Cancer cells were injected subcutaneously in right flank of each mouse, 1×10^4 cells in 0.1 ml PBS with 20% Matrigel. Treatment with the NTR001 was initiated on day 6 after injection of tumor cells. Tumor volume and survival were recorded every 3-4 days.

human TLR2 = biological target: T1, human TLR2 (Homo sapiens, UniProt O60603); assay: TLR ligand screening, NF-κB SEAP reporter in HEK293 cells expressing TLR2; format: cell-based; settings: one concentration: Guanosine 100 uM, NTR001 10 uM, Inosine 100 uM; FIG. 2
T1 construct: expressed in transfected cells; host or cells: HEK293
T1 sequence (O60603 21-784): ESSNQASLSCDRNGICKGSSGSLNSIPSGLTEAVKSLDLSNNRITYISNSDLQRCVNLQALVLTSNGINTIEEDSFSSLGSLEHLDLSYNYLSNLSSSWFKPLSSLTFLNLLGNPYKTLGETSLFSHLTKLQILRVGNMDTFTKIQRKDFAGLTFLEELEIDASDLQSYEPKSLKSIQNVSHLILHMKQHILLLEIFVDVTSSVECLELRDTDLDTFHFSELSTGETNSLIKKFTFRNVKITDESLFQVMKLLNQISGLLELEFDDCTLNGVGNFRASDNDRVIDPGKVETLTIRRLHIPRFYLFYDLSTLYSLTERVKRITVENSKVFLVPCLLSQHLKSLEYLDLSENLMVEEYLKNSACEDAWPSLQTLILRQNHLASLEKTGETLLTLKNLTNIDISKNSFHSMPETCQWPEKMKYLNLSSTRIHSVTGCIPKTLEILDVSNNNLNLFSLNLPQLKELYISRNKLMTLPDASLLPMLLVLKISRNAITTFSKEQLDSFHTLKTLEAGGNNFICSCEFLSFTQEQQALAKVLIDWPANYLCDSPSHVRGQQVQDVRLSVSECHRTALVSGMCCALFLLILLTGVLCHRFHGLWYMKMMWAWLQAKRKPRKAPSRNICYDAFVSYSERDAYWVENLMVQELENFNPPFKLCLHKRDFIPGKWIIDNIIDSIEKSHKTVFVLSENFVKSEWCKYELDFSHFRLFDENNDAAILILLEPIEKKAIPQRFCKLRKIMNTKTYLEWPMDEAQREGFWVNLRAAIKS
Description: (§1) TLR stimulation is tested by assessing NF-κB activation in HEK293 cells expressing a given TLR. The Secreted Embryonic Alkaline Phosphatase (SEAP) reporter is under the control of a promoter inducible by the transcription factor NF-κB. This reporter gene allows the monitoring of signaling through the TLR, based on the activation of NF-κB. The compounds are evaluated at one concentration and compared to control ligands. This step is performed in triplicate.

human TLR4 = biological target: T2, human TLR4 (Homo sapiens, UniProt O00206); assay: TLR ligand screening, NF-κB SEAP reporter in HEK293 cells expressing TLR4; format: cell-based; settings: one concentration: Guanosine 100 uM, NTR001 10 uM, Inosine 100 uM; FIG. 2
T2 construct: expressed in transfected cells; host or cells: HEK293
T2 sequence (O00206 24-839): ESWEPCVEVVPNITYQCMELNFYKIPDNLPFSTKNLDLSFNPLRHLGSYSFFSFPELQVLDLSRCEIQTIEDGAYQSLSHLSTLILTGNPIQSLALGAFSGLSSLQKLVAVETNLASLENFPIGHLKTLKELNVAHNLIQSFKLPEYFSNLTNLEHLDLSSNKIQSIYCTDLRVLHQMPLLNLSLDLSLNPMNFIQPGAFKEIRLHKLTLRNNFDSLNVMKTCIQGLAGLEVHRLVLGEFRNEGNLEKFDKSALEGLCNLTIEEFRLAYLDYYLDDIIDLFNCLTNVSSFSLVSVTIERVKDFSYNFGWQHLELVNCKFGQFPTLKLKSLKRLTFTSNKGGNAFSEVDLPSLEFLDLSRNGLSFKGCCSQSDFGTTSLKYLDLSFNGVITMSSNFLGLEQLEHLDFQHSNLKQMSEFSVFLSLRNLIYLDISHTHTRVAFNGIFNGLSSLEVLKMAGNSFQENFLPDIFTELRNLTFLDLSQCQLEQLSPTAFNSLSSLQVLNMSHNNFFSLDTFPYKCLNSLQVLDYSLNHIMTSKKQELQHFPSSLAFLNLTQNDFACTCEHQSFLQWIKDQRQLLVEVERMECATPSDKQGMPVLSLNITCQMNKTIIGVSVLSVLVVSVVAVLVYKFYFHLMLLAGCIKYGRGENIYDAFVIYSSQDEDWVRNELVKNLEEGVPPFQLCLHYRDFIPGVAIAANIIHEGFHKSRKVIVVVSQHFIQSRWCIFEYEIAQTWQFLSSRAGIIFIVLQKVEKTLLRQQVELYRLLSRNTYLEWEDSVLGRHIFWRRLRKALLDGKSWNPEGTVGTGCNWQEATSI
T2 sequence (Q9Y6Y9 17-160 partner limits assumed): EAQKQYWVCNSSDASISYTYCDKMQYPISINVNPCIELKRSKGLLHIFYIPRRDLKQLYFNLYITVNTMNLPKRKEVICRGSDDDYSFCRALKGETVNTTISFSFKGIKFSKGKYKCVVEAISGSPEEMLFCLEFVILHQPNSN
Description: as §1

tetanus toxoid vaccine = assay: Tetanus toxoid vaccine efficacy study (adjuvant) in mice; format: in vivo; settings: compared to vehicle treated group
Description: Tetanus toxoid (TT) was used to vaccinate mice thrice, two weeks apart. Mice were treated by oral administration of compounds NTR001 and NTR002 and serum was collected at various time points for antibody titer and interferon-g analysis. Mice in Groups 2-6 (Table 2) are vaccinated subcutaneously with 0.1 ml tetanus toxoid vaccine on DAYS 0, 14 and 28. Mice in Group 1 (Table 1) received no vaccine. Antibody titers for DAYS 38 are determined by ELISA using tetanus toxoid coated microtiter plates and anti-mouse conjugate. Sera from DAY 30 are assayed by ELISA for interferon-g.

[1] = tested on: L. monocytogenes (ATCC Strain35152, hemolytic substrain); assay: Mouse model of L. monocytogenes infection; format: in vivo; settings: Balb/c mice infected i.v. with 1×10^6 CFU; treatments per Table 3; FIGS. 7 and 9

CC(=O)O[C@@H]1C[C@@H](CO)O[C@H]1n1c(=O)sc2cnc(N)nc21 [ANA773]
induction of endogenous interferon-a (IFN-a) (interferon-a (IFN-a)): induce endogenous interferon-a (IFN-a) of multiple subtypes | HCV RNA (HCV): dose-dependent reduction

O=P1(N(CCCl)CCCl)NCCCO1 (centres unmarked) [Cycicophosphamide, Cyclophosphamide]
survival (B16 tumors): 30%

Nc1nc2c(ncn2[C@@H]2O[C@H](CO)[C@@H](O)[C@H]2O)c(=O)[nH]1 [Guanosine]
stimulatory effect on human TLR2 (NF-κB activation) (human TLR2): significant stimulatory effect | stimulatory effect on human TLR4 (NF-κB activation) (human TLR4): significant stimulatory effect

O=c1[nH]cnc2c(CN3C[C@H](CO)[C@@H](O)C3)c[nH]c12 [NTR002, 1,5-dihydro-7-[[(3R,4R)-3-hydroxy-4-(hydroxymethyl)pyrrolidin-1-yl]methyl]-4H-pyrrolo[3,2-d]pyrimidin-4-one]
serum interferon-g (tetanus toxoid vaccine; day 30, ELISA, high dose group 60 mg/kg p.o., FIG. 4): elevated | serum tetanus toxoid antibody titers (tetanus toxoid vaccine; day 38, ELISA, p.o. 30 mg/kg (6 days of treatment) and 60 mg/kg (3 days of treatment), FIG. 3): significantly elevated | weight loss [1]: significant decrease
